For test [1], the system named is Flu1-specific clone HA1.7. Kind of test: IFN-γ ELISpot, other Flu1-specific clones. The format is cell-based, human. As to conditions: Fig. 1c, peptide titration, compared with Flu1.
In test [2] the test system is CD4^+ T cells binding the HLA-DR1/HA305−320 tetramer. It is filed as cell-based, human.
Test [3] relates to TRB clonotypes of tetramer-sorted CD4^+ T cells. The format is cell-based, human.
The subject of test [4] is HA1.7, F11 and HA-C6 TCRs. In words: SPR equilibrium binding of HA1.7, F11 and HA-C6 TCRs, combined. The arrangement: species or system human. Conditions: Arg at P10 or P11.
The subject of test [5] is CD4^+ HLA-DR1/HA305−320 tetramer-positive cells. The format is cell-based, human.

Where two headings read alike, the source gives them in different places.

Regarding PKYVKQNTLKLAR [Flu3], the “responsiveness to altered peptides, other clones (in words)” value in test [1] is “striking increase in responsiveness”. Further, the “tetramer-positive expansion, % of CD3^+ T cells” value in test [2] (short-term T-cell line primed with peptide, HLA-DR1/HA305−320 tetramer) is listed as 28.7 % of CD3^+ T cells. Moreover, the Freq. of clonotype in test [3] (TRBV 5–6, CDR3 […], TRBJ 1–2) was 69.70%; in test [3] (TRBV 12–3/4, CDR3 […], TRBJ 1–5) it was 30.30%. In addition, the “clonotypic composition, repeat experiment versus first (in words)” value in test [3] (same donor, Chi square 0.72, P=0.70, data not shown) was “no significant difference”. Moreover, the “increase in TCR binding affinity” value in test [4] is listed as greater than 2 fold.
Consider “PKYVKQNTLKLAT [Flu1, reference compound]”, for which the “number of expanded CD4^+ HLA-DR1/HA305−320 tetramer-positive cells” value in test [5] was ≥ 5×10^4 cells. Moreover, the “tetramer-positive expansion, % of CD3^+ T cells” value in test [2] is reported as 19.4 % of CD3^+ T cells. For the same sequence, the “clonotypic composition, repeat experiment versus first (in words)” value in test [3] is “no significant difference”.

(Values after paper PMC3293629 (Nature Communications, 2012).)
